Source: patent US20260191845A1, “PYRIDINE-2-THIOL 1-OXIDE DERIVATIVES AND THEIR USE FOR TREATMENT OF MAMMALIAN INFECTIONS CAUSED BY MYCOBACTERIUM OR FUNGI” (priority 2022, published 2026)
Read-outs that look alike come from different tables or passages of the source.

Tests used:
[1] = Acute toxicity, intragastric administration in mice; format: in vivo, C57BL/6 male white mice; details: per os, doses lower than 300 mg/kg, 14 days observation
Description: Acute and subacute toxicity of compound 2 was experimentally studied for intragastric administration in white mice. […] The compound was solubilized in saline to be administrated to animals.
Experimental animals: 35 C57BL/6 male white mice, 7 weeks old, weight 20-22 g. The following experimental procedure was used: • administration route of the compound: per os; • number of doses: […]; • dosage: 100-200-250-300-500-600-750 mg/kg; • volume introduced into 0.3 ml/20 g (15 ml/kg); • data recorded: behavior, weight changes, rectal temperature, mortality.

M. massiliense 2005-0524 = test: REMA MIC90, broad spectrum of microorganisms; format: cell-based; details: Mycobacteroides abscessus, 20050524, M. massiliense 2005-0524, Wild-type, read-out: MIC to Compound 2
[2] = format: physicochemical; details: at a temperature of 20±3° C., from accelerated aging at 55±2° C.
Description: The aim of the study is to investigate the physical and chemical properties of a substances at elevated temperature and to establish an experimental expiration date for the substances (saline form vs base form).
• 5-(ethoxycarbonyl)pyridine-2-thiolate 1-oxide (base form) • sodium 5-(ethoxycarbonyl)pyridine-2-thiolate 1-oxide (compound 2—salt form)
• Storage temperature: (55±2° C.)
Double layer polyethylene bag. The package is placed in a bag made of laminated aluminum foil. Each package is wrapped in wrapping paper. […]

Aspergillus niger = test: Antifungal agar well diffusion assay; details: 20 μL water solution in 4 mm well
Description: (§1) The well diffusion test was performed using Casitone agar. The inoculum used was prepared using the Candida or Aspergillus strains from a 24-hour culture on Sabouraud dextrose agar, a suspension was made in a sterile saline solution (0.85%). The turbidity of the suspension was adjusted with a spectrophotometer at 530 nm to obtain a final concentration to match that of a 0.5 McFarland standard (0.5-2.5×10^3). 20 mL of Bacto-casitone were melted, cooled to 55° C. and then inoculated with 1 mL of the organism suspension. The inoculated agar was poured into the assay plate (9 cm in diameter) and allowed to cool down on a leveled surface.

[3] = tested on: Sporobolomyces salmonicolor; test: Antifungal agar well diffusion assay; details: 20 μL water solution in 4 mm well
Description: as §1

M. bolletii 1999-0888 = test: REMA MIC90, broad spectrum of microorganisms; format: cell-based; details: Mycobacteroides abscessus, 19990888, M. bolletii 1999-0888, Wild-type, read-out: MIC to Compound 2
Penicillium notatum = test: Antifungal agar well diffusion assay; details: 20 μL water solution in 4 mm well
Description: as §1

[4] = tested on: Staphylococcus aureus ATCC 25923; test: REMA MIC90, broad spectrum of microorganisms; format: cell-based; details: ATCC25923, read-out: MIC to Compound 2
[5] = tested on: M. avium subsp. avium Chester ATCC15769; test: REMA MIC90, broad spectrum of microorganisms; format: cell-based; details: Mycobacterium avium, M. avium subsp. avium Chester ATCC15769, Wild-type, read-out: MIC to Compound 2
M. smegmatis mc2155 = test: REMA MIC90, broad spectrum of microorganisms; format: cell-based; details: Mycolicibacterium smegmatis, M. smegmatis mc2155, Wild-type, read-out: MIC to Compound 2
[6] = tested on: Mycobacterium abscessus ATCC 19977; test: REMA MIC90 against M. abscessus ATCC 19977; format: cell-based; details: Mycobacteroides abscessus, ATCC19977
Description: Briefly, serial 2-fold dilutions of drug are prepared in 96-well microtiter plates (Fluoronunc, Thermo Fisher, Waltham, MA, USA) in 100 μL of Middlebrook 7H9 medium (Difco), supplemented with 10% OADC without addition of Tween 80. Then, M. abscessus log-phase cultures were diluted (OD600=0.02) and added in the 96-well microtiter plate. Growth controls containing no compound and sterile controls without inoculum are also included. […] After 1 day of incubation at 37° C., 10 μL of resazurin (0.025% w/v) is added to each well, and bacterial viability is assessed after a further 24 h of incubation using a Fluoroskan™ Microplate Fluorometer (Thermo Fisher Scientific, Waltham, MA, USA; excitation=544 nm, emission=590 nm). […] Results are expressed as the average of at least three independent replicates and presented on the following Table 1.

Candida albicans H8 = test: Antifungal agar well diffusion assay; details: 20 μL water solution in 4 mm well
Description: as §1

Structure (SMILES): CCOC(=O)c1ccc([S-])[n+]([O-])c1.[Na+] [Compound 2, Sodium 5-(ethoxycarbonyl)pyridine-2-thiolate 1-oxide]
- Acute toxicity: animal death [1]: there were no cases of animal death
- Acute toxicity: general state and behavior [1]: did not cause changes in the general state and behavior of the mice
- MIC (M. massiliense 2005-0524): 500 µg/mL
- Experimental shelf life [2]: about 2 years
- Inhibition Zone of Test Microorganism (Aspergillus niger): 28 mm
- Inhibition Zone of Test Microorganism [3]: 46 mm
- MIC (M. bolletii 1999-0888): 500 µg/mL
- Inhibition Zone of Test Microorganism (Penicillium notatum): 15 mm
- MIC [4]: 8000 µg/mL
- MIC [5]: 500 µg/mL
- MIC (M. smegmatis mc2155): 1000 µg/mL
- MIC ([6]; MIC90, REMA, Table 1, read-out: MIC in M. abscessus ATCC 19977): 125 µg/mL
- MIC ([6]; MIC90, M. abscessus ATCC 19977, Wild-type, Table 2, read-out: MIC to Compound 2): 250 µg/mL
- Inhibition Zone of Test Microorganism (Candida albicans H8): 53 mm
